Laboratory results taken from ChEMBL document CHEMBL1155441 (J Med Chem, 2010).

Target: WD repeat-containing protein 5 (Homo sapiens, UniProt P61964)
Assay: Binding affinity to WDR5 expressed in pLysS cells by optimized fluorescent polarization based competitive binding assay
Format: biochemical

| IC50 | Ki | Structure (SMILES) |
| --- | --- | --- |
| > 300 µM | > 50 µM | CC(=O)N[C@@H](C)C(=O)N[C@@H](CCCNC(=N)N)C(=O)N(C)[C@@H](C)C(N)=O |
| – | < 0.001 µM | CC(=O)N[C@@H](C)C(=O)N[C@@H](CCCNC(=N)N)C(=O)N[C@H](C(=O)N[C@@H](CCCCN)C(=O)N[C@@H](CCC(N)=O)C(=O)N[C@H](C(=O)N[C@@H](C)C(=O)N[C@@H](CCCNC(=N)N)C(=O)N[C@@H](CCCCN)C(=O)N[C@@H](CO)C(N)=O)[C@@H](C)O)[C@@H](C)O |
| > 300 µM | > 50 µM | C[C@H](N)C(=O)N[C@@H](CCCN=C(N)N)C(=O)N[C@@H](C)C(N)=O |
